pKi: −log10 of the molar value.

The source of these data is patent US8101760B2, “Glucocorticoid receptor modulator and methods of use” (Eli Lilly and Company, priority 2007, dated 2012).

Series [1] is described as follows: Metabolic profiling of plasma after in vivo administration, monkey.
The target of series [2] is T1, human MR (mineralocorticoid receptor) (Homo sapiens, UniProt P08235).
T1 construct: expressed in transfected cells; host or cells: HEK293 (lysate, '293-MR lysate')
T1 sequence (P08235 1-984): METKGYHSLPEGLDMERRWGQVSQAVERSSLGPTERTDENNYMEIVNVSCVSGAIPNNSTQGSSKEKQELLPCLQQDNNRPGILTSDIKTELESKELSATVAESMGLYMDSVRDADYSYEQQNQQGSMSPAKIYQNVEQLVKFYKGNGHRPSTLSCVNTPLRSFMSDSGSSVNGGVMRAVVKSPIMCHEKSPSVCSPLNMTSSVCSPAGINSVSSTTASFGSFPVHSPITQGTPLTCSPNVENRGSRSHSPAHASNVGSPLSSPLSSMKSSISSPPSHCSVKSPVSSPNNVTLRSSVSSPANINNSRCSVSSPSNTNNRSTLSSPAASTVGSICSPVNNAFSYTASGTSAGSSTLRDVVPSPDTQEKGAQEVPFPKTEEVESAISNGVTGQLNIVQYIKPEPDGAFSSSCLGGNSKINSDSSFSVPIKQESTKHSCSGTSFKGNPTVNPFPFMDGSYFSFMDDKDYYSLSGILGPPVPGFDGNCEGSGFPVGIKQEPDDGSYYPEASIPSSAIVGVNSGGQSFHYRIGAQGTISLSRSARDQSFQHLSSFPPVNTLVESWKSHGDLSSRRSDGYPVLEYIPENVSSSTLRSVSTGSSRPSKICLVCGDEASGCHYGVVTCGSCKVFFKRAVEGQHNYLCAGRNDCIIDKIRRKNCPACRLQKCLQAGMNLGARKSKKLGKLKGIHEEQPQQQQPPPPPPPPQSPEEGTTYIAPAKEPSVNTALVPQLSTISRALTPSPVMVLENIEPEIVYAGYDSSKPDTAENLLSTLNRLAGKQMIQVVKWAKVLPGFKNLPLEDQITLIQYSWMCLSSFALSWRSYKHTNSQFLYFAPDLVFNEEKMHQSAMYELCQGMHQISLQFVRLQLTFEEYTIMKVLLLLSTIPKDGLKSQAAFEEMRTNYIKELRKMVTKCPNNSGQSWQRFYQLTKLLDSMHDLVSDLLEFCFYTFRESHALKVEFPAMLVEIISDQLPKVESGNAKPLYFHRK
In words: Nuclear hormone receptor binding assay, MR. How it is done:
Cell lysates from human embryonic kidney HEK293 cells overexpressing human GR (glucocorticoid receptor), AR (androgen receptor), MR (mineralocorticoid receptor), or PR (progesterone receptor) are used for receptor-ligand competition binding assays to determine Ki values.
Briefly, steroid receptor competition binding assays are run in a buffer containing 20 mM Hepes buffer (pH=7.6), 0.2 mM EDTA, 75 mM NaCl, 1.5 mM MgCl2, 20% glycerol, 20 mM sodium molybdate, 0.2 mM DTT (dithiothreitol), 20 μg/mL aprotinin and 20 μg/mL leupeptin. Typically, steroid receptor binding assays include radio-labeled ligands, such as 0.3 nM [^3H]-dexamethasone for GR binding, 0.36 nM [^3H]-methyltrienolone for AR binding, 0.25 nM [^3H]-aldosterone for MR binding, and 0.29 nM [^3H]-methyltrienolone for PR binding, and either 20 μg 293-GR lysate, 22 μg 293-AR lysate, 20 μg 293-MR lysate or 40 μg 293-PR lysate per well. Assays are typically run in 96-well format. Competing test compounds are added at various concentrations ranging from about 0.01 nM to 10 μM. Non-specific binding is determined in the presence of 500 nM dexamethasone for GR binding, 500 nM aldosterone for MR binding, or 500 nM methyltrienolone for AR and PR binding. […] After an incubation of 2 hours, plates are read in a Wallac Microbeta counter. […]

By pKi is commonly meant the negative decadic logarithm of the Ki, by convention in mol/L. Regarding `CC/C(=C1\c2ccc(Cl)cc2OCc2ncccc21)c1cccc(NS(C)(=O)=O)c1` [Compound (I), (E)-N-{3-[1-(8-Chloro-11H-10-oxa-1-aza-dibenzo[a,d]cyclohepten-5-ylidene)-propyl]-phenyl}-methanesulfonamide], the metabolites in plasma entry in series [1] is reported as “no metabolites detected”. Moreover, the “circulating entity in plasma” value in series [1] (after in vivo administration) is reported as “major circulating entity”. The pKi in series [2] (HEK293 cell lysate expressing human MR, [3H]-aldosterone, mean of 5 determinations) is 6.93. Further, the “greater affinity for GR relative to MR” value in series [2] (binding selectivity GR vs MR) is given as not below 30 fold.
